Source: publication doi:10.1101/2020.10.25.354381v1, “Multi-dimensional digital bioassay platform based on an air-sealed femtoliter reactor array device” (biorxiv, 2020)

How the values were obtained:
[1] = test system: T1, CiALP (calf intestinal ALP); assay: fluorogenic ALP assay, bulk microtiter plate, Hill fit; assay type: biochemical, Bos taurus; conditions: […] 4-MUP, […] DEA-HCl, […] MgCl2, […] ZnSO4, pH […] TWEEN20, […] °C; […] min preincubation
T1 construct: gene ALPI; homodimeric metalloenzyme

[2] = target: T2, EcALP (D101S, an active mutant of Escherichia coli ALP) (Escherichia coli, UniProt P00634, D123S); assay: as above; assay type: biochemical; conditions: […] 4-MUP, […] DEA-HCl, […] MgCl2, […] ZnSO4, pH […] TWEEN20, […] °C; […] min preincubation; diluted cell-free synthesis mixture
T2 construct: gene phoA; D101S mutant, cell-free synthesis (PURExpress with disulfide bond enhancer), not purified; homodimeric metalloenzyme
T2 sequence (P00634 22-471 D123S): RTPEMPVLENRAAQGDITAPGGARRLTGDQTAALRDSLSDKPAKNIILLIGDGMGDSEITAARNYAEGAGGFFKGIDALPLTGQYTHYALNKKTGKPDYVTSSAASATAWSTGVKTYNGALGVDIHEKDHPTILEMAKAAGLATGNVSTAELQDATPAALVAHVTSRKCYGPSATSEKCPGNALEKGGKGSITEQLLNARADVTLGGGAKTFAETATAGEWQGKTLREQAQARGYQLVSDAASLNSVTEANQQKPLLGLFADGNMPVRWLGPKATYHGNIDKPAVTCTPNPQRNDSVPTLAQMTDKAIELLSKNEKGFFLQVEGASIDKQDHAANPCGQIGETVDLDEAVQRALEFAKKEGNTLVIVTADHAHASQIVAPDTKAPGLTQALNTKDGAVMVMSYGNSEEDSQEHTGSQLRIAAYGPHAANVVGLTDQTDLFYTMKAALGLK

| Structure (SMILES) | IC50 [1] | IC50 [2] |
| --- | --- | --- |
| O=P(O)(O)O [Pi, phosphate] | 1600 µM |  |
| [O]=[V]([OH])([OH])[OH] [V, vanadate] | 200 µM | 7.8 mM |
